In PubChem BioAssay (NCI):
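Cultured in 96-well plates, cells were exposed to test compound for 48 hours across five concentrations. GI50 is the concentration that inhibits growth by half. At the TGI there is no net growth.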

Assays:
Test in all cases: NCI tumour cell line growth inhibition, 48 h
EKVX NSCLC = tested on: EKVX NSCLC
SK-MEL-5 melanoma = tested on: SK-MEL-5 melanoma
COLO 205 colon = tested on: COLO 205 colon
SNB-19 CNS = tested on: SNB-19 CNS
MALME-3M melanoma = tested on: MALME-3M melanoma
ACHN renal = tested on: ACHN renal
SW-620 colon = tested on: SW-620 colon
RXF 393 renal = tested on: RXF 393 renal
KM12 colon = tested on: KM12 colon
HOP-92 NSCLC = tested on: HOP-92 NSCLC

Structure (SMILES)	GI50 (EKVX NSCLC)	TGI (EKVX NSCLC)	GI50 (SK-MEL-5 melanoma)	TGI (SK-MEL-5 melanoma)	GI50 (COLO 205 colon)	TGI (COLO 205 colon)	GI50 (SNB-19 CNS)	TGI (SNB-19 CNS)	GI50 (MALME-3M melanoma)	TGI (MALME-3M melanoma)	GI50 (ACHN renal)	TGI (ACHN renal)	GI50 (SW-620 colon)	TGI (SW-620 colon)	GI50 (RXF 393 renal)	TGI (RXF 393 renal)	GI50 (KM12 colon)	TGI (KM12 colon)	TGI (HOP-92 NSCLC)	GI50 (HOP-92 NSCLC)
N#Cc1cc(-c2cc3ccccc3o2)oc1N	2.83 µM	14.1 µM	1520 nM	3.78 µM	2.06 µM	4.74 µM	4.07 µM	31.7 µM	2450 nM	6.98 µM	3 µM	11.1 µM	3.98 µM	14.8 µM	3.96 µM	13.5 µM	3.58 µM	11.8 µM	–	–
[N-]=[N+]=C1C(=O)NN=C1c1ccccc1	–	> 100 µM	–	–	–	> 100 µM	–	–	–	> 100 µM	–	> 100 µM	–	> 100 µM	–	> 100 µM	–	> 100 µM	> 100 µM	–
Cc1cc(N(CCC#N)CCC#N)ccc1/C=C(\NC(=O)/C=C/c1ccccc1)C(N)=O	–	> 100 µM	–	> 100 µM	–	> 100 µM	–	> 100 µM	–	> 100 µM	–	> 100 µM	–	> 100 µM	–	21 µM	–	> 100 µM	–	–
C=C(C)[C@@H]1CC[C@]2(CO)CC[C@]3(C)[C@H](CC[C@@H]4[C@@]5(C)C=C(C#N)C(=O)C(C)(C)[C@@H]5CC[C@]43C)[C@@H]12	1.63 µM	4.61 µM	1200 nM	2.52 µM	1.38 µM	2.72 µM	1.58 µM	4.08 µM	1400 nM	3.82 µM	1.72 µM	4.77 µM	2.24 µM	5.12 µM	1.13 µM	2.76 µM	–	–	5.15 µM	2220 nM
CCOC(=O)C(=O)Nc1ccccc1CC	–	> 100 µM	–	> 100 µM	–	–	–	> 100 µM	–	> 100 µM	–	> 100 µM	–	> 100 µM	–	> 100 µM	–	> 100 µM	> 100 µM	–
Cc1cc2ncnn2cc1Nc1ncc2c(n1)n(C1CCOCC1)c(=O)n2C	10.8 µM	> 100 µM	14000 nM	29.2 µM	4.93 µM	> 100 µM	–	–	2490 nM	29.3 µM	9.97 µM	> 100 µM	18.1 µM	> 100 µM	3.73 µM	29.9 µM	14.5 µM	> 100 µM	18.8 µM	2010 nM
C/C(=N\Nc1ccc(Cl)cn1)c1ccc2ccccc2n1	2.6 µM	> 100 µM	–	–	2.98 µM	> 100 µM	3.3 µM	> 100 µM	2210 nM	> 100 µM	2.49 µM	> 100 µM	3.83 µM	> 100 µM	2.95 µM	> 100 µM	3.15 µM	> 100 µM	> 100 µM	2250 nM
COC(=O)C(CC(=O)Nc1ccc(C)cc1)C(=O)C(=O)Nc1c(C(C)C)cccc1C(C)C (stereo not given)	–	> 100 µM	–	–	–	> 100 µM	–	> 100 µM	–	> 100 µM	–	> 100 µM	–	> 100 µM	–	> 100 µM	–	–	> 100 µM	–
COc1c(C(=O)/C=C/c2ccccc2)c(O)cc2occc12	12.5 µM	25.6 µM	3870 nM	16.3 µM	15.7 µM	29.9 µM	7.33 µM	20.4 µM	–	–	4.51 µM	19.9 µM	3.52 µM	11.7 µM	3.56 µM	15.6 µM	3.71 µM	13.3 µM	7.09 µM	1640 nM
CC12OC(C(=O)C13CC3)C1C(=O)c3ccc4c(ccc5ccccc54)c3C(=O)C12 (stereo not given)	51.3 µM	> 100 µM	–	–	32.2 µM	> 100 µM	71.8 µM	> 100 µM	14200 nM	56.6 µM	–	–	–	–	22.5 µM	61.8 µM	22.9 µM	59.5 µM	> 100 µM	27500 nM
CCOC(=O)N[C@@H]1C(CC(=O)OC)O[C@H]2OC(C)(C)O[C@H]21 (stereo not given in full)	–	–	–	> 100 µM	–	> 100 µM	–	–	–	> 100 µM	–	> 100 µM	–	> 100 µM	–	> 100 µM	–	> 100 µM	> 100 µM	–
Clc1cc(Cl)c2ns[s+]c2c1Cl	–	> 100 µM	–	> 100 µM	–	> 100 µM	–	> 100 µM	–	> 100 µM	–	> 100 µM	–	> 100 µM	–	> 100 µM	–	> 100 µM	–	–
